Assay results taken from patent publication US20050181066A1, “Novel use of guanylate cyclase activators for the treatment of respiratory insufficiency” (Altana Pharma AG, priority 2002, published 2005).
“Also recorded” adds a separate entry of the source.

What was measured:
[1] = system: anaesthetized and ventilated rabbit with oleic acid-induced lung damage; assay: Whole animal model of acute pulmonary hypertension with severe gas exchange impairment through oleic acid (MIGET, haemodynamics); format: in vivo; details: for effect on pulmonary arterial pressure (FIG. 2) / effect on systemic arterial pressure (FIG. 3): NO 10, 34, 70, 120, 200 ppm by inhalation, YC-1 5 mg infusion over 10 min; for effect on pulmonary arterial pressure (FIG. 2) / effect on systemic arterial pressure (FIG. 3) / effect on arterial oxygenation / oxygenation index (FIG. 6) / effect on intrapulmonary shunting (MIGET, FIG. 5) / effect on perfusion of normally ventilated areas of the lung (normal V/Q, MIGET, FIG. 7) / effect on pulmonary arterial pressure (FIG. 4): n=6; for effect on arterial oxygenation / oxygenation index (FIG. 6): 150 min after oleic acid injection; for intrapulmonary shunting (MIGET): oleic acid (OA) group 33±2 %; for arterial oxygenation: oleic acid (OA) group 123±13 mmHg; for effect on intrapulmonary shunting (MIGET, FIG. 5) / effect on perfusion of normally ventilated areas of the lung (normal V/Q, MIGET, FIG. 7) / effect on pulmonary arterial pressure (FIG. 4): YC-1 5 mg infusion 30-40 min after oleic acid
Method: Whole Animal Model of Acute Pulmonary Hypertension with Severe Gas Exchange Impairment Through Infusion of Oleic Acid
The test animals In the rabbit model were anaesthetized by injection of about 700 μl of a mixture of Ketanest and Rompun in the ratio 3:2. The spontaneous breathing of the animal was maintained with this initial anaesthesia. 1 000 I.U. of heparin per kg of bodyweight were injected for anticoagulation. For the intubation, 7 ml of Xylocaine were injected into the subcutaneous tissue of the animal's neck. A tube was introduced into the trachea underneath the larynx and was used from this instant onwards for ventilation of the animal through the ventilation pump (breathing rate: […], tidal volume 35 ml). The animal underwent standard ventilation with a 50% N2 and a 50% O2 gas mixture. 7 ml/h of the anaesthetic mixture were administered through a Perfusor, which led to a deep analgesia and relaxation of the animal. The left common carotid artery was ligated and punctured for measurement of the arterial pressure. […] Through this port, a 4F balloon catheter was placed in the right ventricle and the right ventricular pressure was recorded. The gas exchange was analysed by the multiple inert gas elimination technique (MIGET). The MIGET is based on elimination and retention of a plurality of inert gases. Central venous infusion thereof in dissolved form into the animal via the ear margin vein was therefore necessary. This infusion solution was prepared by introducing 250 ml of the perfusate without air bubbles into a gas-tight bag. 0.5 ml of liquid halothane was put into this bag through an injection plug. The bag was then filled with a test gas mixture (10% SF6 3.0, 20% cyclopropane 2.0 and 70% ethane 2.5) and the gases were dissolved in the perfusate. 0.15 ml of diethyl ether was injected, followed by 0.7 ml of acetone. This solution was infused continuously at 30 ml/h into the animal during the equilibration period after change of the perfusate. An equilibrium between retention and elimination of the gases was set up within a period of 30-40 min. After this time, 2.5 ml samples were taken simultaneously from the arterial and venous blood by gas-tight 50 ml glass syringes (B-D Yale, Becton, Dickinson & Co, USA). The arterial and the venous sample was then weighed, blanketed with 15 ml of nitrogen gas (ECD grade) and incubated at 38° C. in a shaking water bath (135 min^−1). During this time, an equilibrium, depending on the solubility of the gas, was set up between the gaseous and liquid phase. After the equilibration time had elapsed, the total volume of the syringe was determined and the supernatant gas was transferred into an air-tight 30 ml glass syringe (B-D Yale, Becton, Dickinson & Co, USA) preheated to 38° C. The latter was stored at 38° C. and used for gas chromatographic analysis. Immediately after removal of the arterial and venous perfusate, a sample of the expired air from the isolated lung was taken by a preheated 30 ml glass syringe on an expiratory gas mixing box. This gaseous sample was analysed immediately in a gas chromatograph. The gases were analysed by a computer-assisted calculation through which essentially the following parameters were calculated: shunting (perfusion, unventilated regions of the lung), normal V/Q (perfusion in normally ventilated regions of the lung).
Besides the MIGET data, the following haemodynamic parameters were determined: • pulmonary arterial pressure • systemic arterial pressure • arterial oxygen partial pressure (pO2)
Catheterization of the animal was followed by injection of 50 μg of oleic acid (OA) into the pulmonary artery. The pulmonary arterial pressure rose after this injection from 11-13 mmHg to a stable plateau of 17-18 mmHg. This rise in the pulmonary arterial pressure was accompanied by severe gas exchange impairment essentially characterized by a fall in the arterial oxygenation and a rise in the shunt perfusion (measured by the MIGET). […]

[2] = system: patients with bronchial asthma; details: intravenous administration; cited from earlier work
[3] = system: rabbit model of acute pulmonary hypertension; details: cited from earlier work; for effect on pulmonary hypertension / pulmonary and systemic vasodilatation: systemic (intravenous) administration, in the combination a dose of dipyridamole with no activity per se
[4] = system: ventilated patients suffering from acute adult respiratory distress syndrome (ARDS); details: inhaled; cited from earlier work
[5] = system: isolated rabbit lung; assay: Isolated, bloodlessly perfused and ventilated rabbit lung with U46619-induced acute pulmonary hypertension; details: for effect on pulmonary arterial pressure (FIG. 1): U46619-induced pulmonary hypertension, NO 10, 50, 100, 200 ppm cumulatively by inhalation, YC-1 0.1 μM, enhancement at 50, 100, 200 ppm NO, n=6
Method: Model of the Isolated, Bloodlessly Perfused and Ventilated Rabbit Lung
The test animal was anaesthetized by injection of about 700 μl of a mixture of Ketanest and Rompun in the ratio 3:2. The spontaneous breathing of the animal was maintained with this initial anaesthesia. 1 000 I.U. of heparin per kg of bodyweight were injected through the venous access for anticoagulation. For the intubation, 7 ml of Xylocaine were injected into the subcutaneous tissue of the animal's neck. A tube was introduced into the trachea underneath the larynx and was used from this instant onwards to ventilate the animal with ambient air through the ventilating pump (breathing rate: […], tidal volume 30 ml). About 3 ml of the anaesthetic mixture were administered over a period of 15 min. The lungs were then removed by a standard technique; likewise dissection of the pulmonary artery and the ascending aorta.
To make it possible to remove the lung from the body's own perfusion without interruption, the pulmonary artery catheter of the perfusion system was, after incision of the right ventricle, advanced into the pulmonary artery and fixed there by means of the open ligature. After cutting off the apex of the heart and closing the ascending aorta, the lung was artificially perfused with Krebs-Henseleit buffer cooled to 4° C. (the cooling served to reduce metabolism) at 20 ml/min. The ambient air was replaced by a 5% CO2, 15% O2 and 80% N2 gas mixture.
The lung was dissected out of the thorax, and a connector was sutured into the left heart to allow the perfusion circulation to be completed. The lung was suspended on a weighing cell and the perfusion circulation was completed through the connector. The lung perfusate then flowed out through a pressure cascade. The temperature of the complete system was raised to 38° C. and the pressure recording started. In the system, the pulmonary artery pressure, the left ventricular pressure, the ventilation pressure and the weight were recorded continuously. […]

[6] = system: patients with post-traumatic pulmonary dysfunction; details: infusion; 11 patients; cited from earlier work
[7] = NO 100 ppm inhaled 30-150 min, YC-1 5 mg infusion 30-40 min

CCCCCCCC/C=C\CCCCCCCC(=O)O [oleic acid]
intrapulmonary shunting after oleic acid injection ([1]; 50 μg oleic acid): 30-35%
pulmonary arterial pressure plateau after oleic acid injection ([1]; 50 μg oleic acid into the pulmonary artery, rise from 11-13 mmHg): 17-18 mmHg

urodilatin
effect on ventilatory parameters [2]: improvement in the ventilatory parameters
effect on pressure in the systemic circulation ([3]; intravenous administration): reduces the pressure in the systemic circulation to the same extent
effect on pulmonary hypertension / pulmonary and systemic vasodilatation [3]: dose-dependent reduction in the pulmonary and systemic vasodilatation; also recorded: marked reduction in pulmonary hypertension

[N]=O [NO, nitric oxide]
effect on gas exchange [4]: improvement in gas exchange
effect on pulmonary arterial pressure (FIG. 1) [5]: dose-dependent reduction in the pulmonary arterial pressure
effect on pulmonary arterial pressure (FIG. 2) ([1]; 50 μg oleic acid): dose-dependent reduction in the pulmonary arterial pressure
effect on systemic arterial pressure (FIG. 3) ([1]; 50 μg oleic acid): remained unchanged; also recorded: did not lead to a dose-dependent reduction in the systemic arterial pressure
effect on arterial oxygenation / oxygenation index (FIG. 6) [1, 7]: significant increase in the arterial oxygenation
pulmonary arterial pressure ([1]; NO 100 ppm inhaled 30-150 min, YC-1 5 mg infusion 30-40 min, oleic acid (OA) group 17.8±1.6 mmHg): 14.5±1.8 mmHg
intrapulmonary shunting (MIGET) [1, 7]: 23±3%
arterial oxygenation [1, 7]: 234±21 mmHg
effect on intrapulmonary shunting (MIGET, FIG. 5) ([1]; NO 100 ppm inhaled 30-150 min): reduction in the intrapulmonary shunting
effect on perfusion of normally ventilated areas of the lung (normal V/Q, MIGET, FIG. 7) ([1]; NO 100 ppm inhaled 30-150 min): significant increase in the perfusion of normally ventilated areas of the lung
effect on pulmonary arterial pressure (FIG. 4) ([1]; NO 100 ppm inhaled 30-150 min): reduction in the pulmonary arterial pressure

OCc1ccc(-c2nn(Cc3ccccc3)c3ccccc23)o1 [YC-1, 3-(5′-Hydroxymethyl-2′-furyl)-1-benzyl indazole]
effect on pulmonary arterial pressure (FIG. 1) [5]: no intrinsic effect on the pulmonary arterial pressure
effect on pulmonary arterial pressure (FIG. 2) ([1]; 50 μg oleic acid): no effect on the measured parameters
effect on systemic arterial pressure (FIG. 3) ([1]; 50 μg oleic acid): no effect on the measured parameters
effect on arterial oxygenation / oxygenation index (FIG. 6) [1, 7]: significant effect on the oxygenation index
intrapulmonary shunting (MIGET) [1, 7]: 21±4%
arterial oxygenation [1, 7]: 215±8 mmHg
effect on intrapulmonary shunting (MIGET, FIG. 5) ([1]; NO 100 ppm inhaled 30-150 min): no significant effect on intrapulmonary shunting
effect on perfusion of normally ventilated areas of the lung (normal V/Q, MIGET, FIG. 7) ([1]; NO 100 ppm inhaled 30-150 min): no significant effect on the perfusion of normally ventilated areas of the lung
effect on pulmonary arterial pressure (FIG. 4) ([1]; NO 100 ppm inhaled 30-150 min): no effect on the pulmonary arterial pressure

CCCCC[C@H](O)/C=C/[C@@H]1[C@@H](C/C=C\CCCC(=O)O)[C@H]2CO[C@@H]1C2 [U46619]
pulmonary arterial pressure raised by U46619 ([5]; continuous intravascular 70 to 160 pmol/kg min U46619, raised from 6-8 mmHg): 33-35 mmHg

OCCN(CCO)c1nc(N2CCCCC2)c2nc(N(CCO)CCO)nc(N3CCCCC3)c2n1 [dipyridamole]
effect on pulmonary hypertension / pulmonary and systemic vasodilatation [3]: dose-dependent reduction in the pulmonary and systemic vasodilatation

O=[N+]([O-])OCC(CO[N+](=O)[O-])O[N+](=O)[O-] [Ng, 1,2,3-propanetriyl trinitrate]
effect on acute pulmonary hypertension [6]: reduction in the acute pulmonary hypertension
effect on arterial oxygen content [6]: deterioration in the arterial oxygen content
